The values that follow are results of earlier work, collected in patent US7615672B2, “Process for the preparation of n-heneicosane” (Defence Research & Development Organisation, priority 2005, dated 2009).

In this data set the test system is Aedes aegypti. The settings on record: oviposition attractant pheromone.

Take `CCCCCCCCCCCCCCCCCCCCC` [n-heneicosane]: the “concentration at which n-heneicosane attracts Aedes aegypti mosquitoes” value is recorded as “less than 100 ppm”.
